Earlier results in paper PMC12621043, “Un-LOK-ing a New Approach for Conformational Selective Targeting of STK10 (LOK)” (ACS Medicinal Chemistry Letters, 2025).
Where “and” joins values, the source holds several entries; their conditions need not be identical. Equal entries are not always repeated.

Columns and labels:
STK10 = molecular target: T1, STK10 (Homo sapiens, UniProt O94804); conditions: Figure 1, previous published dual STK10/SLK inhibitors, ref Serafim et al.; read-out: STK10 cellular IC50; cited from earlier work
T1 construct: purchased in-house DSF kinase panel (SGC-style construct names; the trailing letter is the construct ID)

SLK = test system: SLK; design: method as in Serafim et al.; conditions: Figure 1, previous published dual STK10/SLK inhibitors, ref Serafim et al.; read-out: SLK cellular IC50; cited from earlier work

T1 sequence (O94804 18-317 limits assumed): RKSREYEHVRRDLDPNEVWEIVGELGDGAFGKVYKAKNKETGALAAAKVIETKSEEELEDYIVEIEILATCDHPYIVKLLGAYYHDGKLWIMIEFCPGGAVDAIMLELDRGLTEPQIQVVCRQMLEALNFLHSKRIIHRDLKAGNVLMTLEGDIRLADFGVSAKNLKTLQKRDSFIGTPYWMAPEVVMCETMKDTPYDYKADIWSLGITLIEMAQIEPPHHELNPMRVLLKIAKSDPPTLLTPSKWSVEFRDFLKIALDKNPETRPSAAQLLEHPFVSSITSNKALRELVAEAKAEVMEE

In the case of `COc1ccc(CNC(=O)Nc2ccc3cc2OCCOCCNc2ccn4ncc-3c4n2)cc1` [compound 31], the IC50 (STK10) is given as > 1000 nM and 1400 nM and the IC50 (SLK) is given as 700 nM.
